The target in test [1] is CMV-polymerase (Human cytomegalovirus (strain AD169) (HHV-5) (Human herpesvirus 5), UniProt P08546). Put plainly: biochemical.
Test [2] deals with CMV. Description: microbe, parasite or virus in culture. It counts as cell-based. Conditions: Human betaherpesvirus 5, 72 h, read-out: CMV-Luc Cellular EC50, NN-NHDF cells, MOI 1, 72 hrs.
The mark [3] stands for this setting: read-out: CMV-polymerase Biochemical IC50.
[4] abbreviates: CMV-polymerase Biochemical IC50.

Where two headings read alike, the source gives them in different places.

For the compound `Cn1nc(C(=O)NCc2ccc(C#N)cc2)c2c1C(=O)N(CC1(S(=O)(=O)C3(CCO)CC3)CC1)CC2` [Example 117, N-(4-Cyanobenzyl)-6-((1-((1-(2-hydroxyethyl)cyclopropyl)sulfonyl)cyclopropyl)methyl)-1-methyl-7-oxo-4,5,6,7-tetrahydro-1H-pyrazolo[3,4-c]pyridine-3-carboxamide], the IC50 in test [1] (setting [3]) was 0.004 µM. In addition, in test [2], the EC50 amounted to 0.035 µM.
For the compound `Cn1nc(C(=O)NCc2ccc(C#N)cc2)c2c1C(=O)N(CC1(S(=O)(=O)CC(C)(C)O)CC1)CC2` [Example 118, N-(4-Cyanobenzyl)-6-((1-((2-hydroxy-2-methylpropyl)sulfonyl)cyclopropyl)methyl)-1-methyl-7-oxo-4,5,6,7-tetrahydro-1H-pyrazolo[3,4-c]pyridine-3-carboxamide], the half-inhibitory concentration (IC50) in test [1] (setting [3]) was 0.019 µM. In addition, in test [2], the EC50 was 0.327 µM.
In test [1] (setting [4]), `Cn1nc(C(=O)NCc2ccc(C#N)cc2)c2c1C(=O)N(CC1(S(=O)(=O)[C@H]3C[C@@H](O)C3)CC1)CC2` [Example 119, N-(4-Cyanobenzyl)-6-((1-(((1s,3s)-3-hydroxycyclobutyl)sulfonyl)cyclopropyl)methyl)-1-methyl-7-oxo-4,5,6,7-tetrahydro-1H-pyrazolo[3,4-c]pyridine-3-carboxamide] had a half-maximal inhibitory concentration (IC50) of 0.004 µM. In test [2], the concentration for a half-maximal effect (EC50) amounted to 0.156 µM.
In turn, `Cn1nc(C(=O)NCc2ccc(C#N)cc2)c2c1C(=O)N(CC1(S(=O)(=O)[C@H]3C[C@H](O)C3)CC1)CC2` [Example 120, N-(4-Cyanobenzyl)-6-((1-(((1r,3r)-3-hydroxycyclobutyl)sulfonyl)cyclopropyl)methyl)-1-methyl-7-oxo-4,5,6,7-tetrahydro-1H-pyrazolo[3,4-c]pyridine-3-carboxamide] yielded an IC50 in test [1] (setting [4]) of 0.003 µM. Moreover, in test [2], the EC50 stood at 0.151 µM.
Taken in the same sequence, the figures for `Cn1nc(C(=O)NCc2ccc(Cl)cc2)c2c1C(=O)N(CC1(S(N)(=O)=O)CC1)CC2` [Example 121, N-(4-chlorobenzyl)-1-methyl-7-oxo-6-((1-sulfamoylcyclopropyl)methyl)-4,5,6,7-tetrahydro-1H-pyrazolo[3,4-c]pyridine-3-carboxamide] were 0.008 µM and 0.156 µM.
On to `CN(C)/C=N/S(=O)(=O)C1(CN2CCc3c(C(=O)NCc4ccc(Cl)cc4)nn(C)c3C2=O)CC1` [Example 122, (E)-N-(4-chlorobenzyl)-6-((1-(N-((dimethylamino)methylene)sulfamoyl)cyclopropyl)methyl)-1-methyl-7-oxo-4,5,6,7-tetrahydro-1H-pyrazolo[3,4-c]pyridine-3-carboxamide], for which the IC50 in test [1] (setting [3]) amounted to 0.007 µM. Further, the EC50 in test [2] was found to be 0.298 µM.
For `Cn1nc(C(=O)NCc2ccc(C#N)cc2)c2c1C(=O)N(CC1(S(=O)(=O)N3CCOCC3)CC1)CC2` [Example 124, N-(4-Cyanobenzyl)-1-methyl-6-((1-(morpholinosulfonyl)cyclopropyl)methyl)-7-oxo-4,5,6,7-tetrahydro-1H-pyrazolo[3,4-c]pyridine-3-carboxamide], the IC50 in test [1] (setting [3]) stood at 0.006 µM. Further, the EC50 in test [2] was found to be 0.156 µM.
As for `Cn1nc(C(=O)NCc2ccc(C#N)cc2)c2c1C(=O)N(CC1(S(=O)(=O)N3CCC(O)CC3)CC1)CC2` [Example 125, N-(4-Cyanobenzyl)-6-((1-((4-hydroxypiperidin-1-yl)sulfonyl)cyclopropyl)methyl)-1-methyl-7-oxo-4,5,6,7-tetrahydro-1H-pyrazolo[3,4-c]pyridine-3-carboxamide], in test [1] (setting [3]), the IC50 is 0.003 µM. In test [2], the EC50 amounted to 0.196 µM.
On the same counts, the results for `Cn1nc(C(=O)NCc2ccc(C#N)cc2)c2c1C(=O)N(CC1(S(=O)(=O)N3CC[C@@H](O)C3)CC1)CC2` [Example 126, (R)-N-(4-Cyanobenzyl)-6-((1-((3-hydroxypyrrolidin-1-yl)sulfonyl)cyclopropyl)methyl)-1-methyl-7-oxo-4,5,6,7-tetrahydro-1H-pyrazolo[3,4-c]pyridine-3-carboxamide] are 0.004 µM and 0.118 µM.
`Cn1nc(C(=O)NCc2ccc(C#N)cc2)c2c1C(=O)N(CC1(S(=O)(=O)N3CC[C@H](O)C3)CC1)CC2` [Example 127, (S)-N-(4-Cyanobenzyl)-6-((1-((3-hydroxypyrrolidin-1-yl)sulfonyl)cyclopropyl)methyl)-1-methyl-7-oxo-4,5,6,7-tetrahydro-1H-pyrazolo[3,4-c]pyridine-3-carboxamide]: the IC50 in test [1] (setting [3]) was 0.004 µM. Besides, in test [2], the EC50 was determined as 0.122 µM.
On the same counts, the results for `Cn1nc(C(=O)NCc2ccc(C#N)cc2)c2c1C(=O)N(CC1(S(=O)(=O)NC3CC3)CC1)CC2` [Example 129, N-(4-cyanobenzyl)-6-((1-(N-cyclopropylsulfamoyl)cyclopropyl)methyl)-1-methyl-7-oxo-4,5,6,7-tetrahydro-1H-pyrazolo[3,4-c]pyridine-3-carboxamide] are 0.016 µM and 0.247 µM.
Taken in the same sequence, the figures for `Cn1nc(C(=O)NCc2ccc(C#N)cc2)c2c1C(=O)N(CC1(S(=O)(=O)NC3COC3)CC1)CC2` [Example 132, N-(4-Cyanobenzyl)-1-methyl-6-((1-(N-(oxetan-3-yl)sulfamoyl)cyclopropyl)methyl)-7-oxo-4,5,6,7-tetrahydro-1H-pyrazolo[3,4-c]pyridine-3-carboxamide] were 0.02 µM and 0.289 µM.
Taken in the same sequence, the figures for `Cn1nc(C(=O)NCc2ccc(C#N)cc2)c2c1C(=O)N(CC1(S(=O)(=O)N3CCNCC3)CC1)CC2` [Example 133, N-(4-Cyanobenzyl)-1-methyl-7-oxo-6-((1-(piperazin-1-ylsulfonyl)cyclopropyl)methyl)-4,5,6,7-tetrahydro-1H-pyrazolo[3,4-c]pyridine-3-carboxamide] were 0.02 µM and 0.097 µM.
For the compound `Cn1nc(C(=O)NCc2ccc(C#N)cc2)c2c1C(=O)N(CC1(S(=O)(=O)NCCCN)CC1)CC2` [Example 134, 6-((1-(N-(3-Aminopropyl)sulfamoyl)cyclopropyl)methyl)-N-(4-cyanobenzyl)-1-methyl-7-oxo-4,5,6,7-tetrahydro-1H-pyrazolo[3,4-c]pyridine-3-carboxamide], in test [1] (setting [3]), the IC50 worked out at 0.031 µM. In addition, the EC50 in test [2] came out at 0.443 µM.
On the same counts, the results for `Cn1nc(C(=O)NCc2ccc(C#N)cc2)c2c1C(=O)N(CC1(S(=O)(=O)NCCN)CC1)CC2` [Example 135, 6-((1-(N-(2-Aminoethyl)sulfamoyl)cyclopropyl)methyl)-N-(4-cyanobenzyl)-1-methyl-7-oxo-4,5,6,7-tetrahydro-1H-pyrazolo[3,4-c]pyridine-3-carboxamide] are 0.062 µM and 0.536 µM.
For `CN1CCN(S(=O)(=O)C2(CN3CCc4c(C(=O)NCc5ccc(C#N)cc5)nn(C)c4C3=O)CC2)CC1` [Example 136, N-(4-Cyanobenzyl)-1-methyl-6-((1-((4-methylpiperazin-1-yl)sulfonyl)cyclopropyl)methyl)-7-oxo-4,5,6,7-tetrahydro-1H-pyrazolo[3,4-c]pyridine-3-carboxamide], the IC50 in test [1] (setting [3]) came out at 0.018 µM. Further, the EC50 in test [2] came out at 0.199 µM.
For the compound `Cn1nc(C(=O)NCc2ccc(C#N)cc2)c2c1C(=O)N(CC1(S(=O)(=O)NC3CCNCC3)CC1)CC2` [Example 137, N-(4-Cyanobenzyl)-1-methyl-7-oxo-6-((1-(N-(piperidin-4-yl)sulfamoyl)cyclopropyl)methyl)-4,5,6,7-tetrahydro-1H-pyrazolo[3,4-c]pyridine-3-carboxamide], in test [1] (setting [3]), the IC50 came to 0.044 µM. Besides, the EC50 in test [2] worked out at 0.636 µM.
Taken in the same sequence, the figures for `Cn1nc(C(=O)NCc2ccc(C#N)cc2)c2c1C(=O)N(CC1(S(=O)(=O)N3CCC(N)CC3)CC1)CC2` [Example 138, 6-((1-((4-Aminopiperidin-1-yl)sulfonyl)cyclopropyl)methyl)-N-(4-cyanobenzyl)-1-methyl-7-oxo-4,5,6,7-tetrahydro-1H-pyrazolo[3,4-c]pyridine-3-carboxamide] were 0.021 µM and 0.127 µM.
On the same counts, the results for `Cn1nc(C(=O)NCc2ccc(C#N)cc2)c2c1C(=O)N(CC1(S(=O)(=O)N3C[C@@H](N)[C@H](O)C3)CC1)CC2` [Example 139, 6-((1-(((3R,4R)-3-Amino-4-hydroxypyrrolidin-1-yl)sulfonyl)cyclopropyl)methyl)-N-(4-cyanobenzyl)-1-methyl-7-oxo-4,5,6,7-tetrahydro-1H-pyrazolo[3,4-c]pyridine-3-carboxamide] are 0.008 µM and 0.533 µM.
For the compound `Cn1nc(C(=O)NCc2ccc(C#N)cc2)c2c1C(=O)N(CC1(S(=O)(=O)N3C[C@H](N)[C@@H](O)C3)CC1)CC2` [Example 140, 6-((1-(((3S,4S)-3-Amino-4-hydroxypyrrolidin-1-yl)sulfonyl)cyclopropyl)methyl)-N-(4-cyanobenzyl)-1-methyl-7-oxo-4,5,6,7-tetrahydro-1H-pyrazolo[3,4-c]pyridine-3-carboxamide], the IC50 in test [1] (setting [3]) was found to be 0.011 µM. For the same compound, the EC50 in test [2] was 0.418 µM.
On the same counts, the results for `Cn1nc(C(=O)NCc2ccc(C#N)cc2)c2c1C(=O)N(CC1(S(=O)(=O)N3CC[C@@H](N)C3)CC1)CC2` [Example 141, (R)-6-((1-((3-Aminopyrrolidin-1-yl)sulfonyl)cyclopropyl)methyl)-N-(4-cyanobenzyl)-1-methyl-7-oxo-4,5,6,7-tetrahydro-1H-pyrazolo[3,4-c]pyridine-3-carboxamide] are 0.013 µM and 0.051 µM.
With `Cn1nc(C(=O)NCc2ccc(C#N)cc2)c2c1C(=O)N(CC1(S(=O)(=O)N3CC[C@H](N)C3)CC1)CC2` [Example 142, (S)-6-((1-((3-Aminopyrrolidin-1-yl)sulfonyl)cyclopropyl)methyl)-N-(4-cyanobenzyl)-1-methyl-7-oxo-4,5,6,7-tetrahydro-1H-pyrazolo[3,4-c]pyridine-3-carboxamide], the IC50 in test [1] (setting [3]) amounted to 0.018 µM. The EC50 in test [2] came to 0.066 µM.
On the same counts, the results for `Cn1nc(C(=O)NCc2ccc(Cl)cc2)c2c1C(=O)N(CC1(S(=O)(=O)NCCO)CC1)CC2` [Example 143, N-(4-Chlorobenzyl)-6-((1-(N-(2-hydroxyethyl)sulfamoyl)cyclopropyl)methyl)-1-methyl-7-oxo-4,5,6,7-tetrahydro-1H-pyrazolo[3,4-c]pyridine-3-carboxamide] are 0.019 µM and 0.138 µM.
